Data as given in US20130203649A1, “INHIBITORS OF TLR SIGNALING BY TARGETING TIR DOMAIN INTERFACES” (UNIVERSITY OF MARYLAND, BALTIMORE, priority 2012, published 2013).
Residues, ends and D or L forms follow the SMILES beside them. No end group written: not given here.

Assays:
TLR2 = molecular target: T1, TLR2 (Mus musculus, UniProt Q9QUN7); test: Inhibition of TLR2 signaling in thioglycollate-elicited mouse macrophages (effective concentration, TLR2 agonists P3C/P2C); assay type: cell-based; conditions: mouse macrophages, P3C/P2C
T1 construct: Primary peritoneal macrophages were obtained by peritoneal lavage; endogenous in cells; host or cells: thioglycollate-elicited mouse peritoneal macrophages
T1 sequence (Q9QUN7 25-784): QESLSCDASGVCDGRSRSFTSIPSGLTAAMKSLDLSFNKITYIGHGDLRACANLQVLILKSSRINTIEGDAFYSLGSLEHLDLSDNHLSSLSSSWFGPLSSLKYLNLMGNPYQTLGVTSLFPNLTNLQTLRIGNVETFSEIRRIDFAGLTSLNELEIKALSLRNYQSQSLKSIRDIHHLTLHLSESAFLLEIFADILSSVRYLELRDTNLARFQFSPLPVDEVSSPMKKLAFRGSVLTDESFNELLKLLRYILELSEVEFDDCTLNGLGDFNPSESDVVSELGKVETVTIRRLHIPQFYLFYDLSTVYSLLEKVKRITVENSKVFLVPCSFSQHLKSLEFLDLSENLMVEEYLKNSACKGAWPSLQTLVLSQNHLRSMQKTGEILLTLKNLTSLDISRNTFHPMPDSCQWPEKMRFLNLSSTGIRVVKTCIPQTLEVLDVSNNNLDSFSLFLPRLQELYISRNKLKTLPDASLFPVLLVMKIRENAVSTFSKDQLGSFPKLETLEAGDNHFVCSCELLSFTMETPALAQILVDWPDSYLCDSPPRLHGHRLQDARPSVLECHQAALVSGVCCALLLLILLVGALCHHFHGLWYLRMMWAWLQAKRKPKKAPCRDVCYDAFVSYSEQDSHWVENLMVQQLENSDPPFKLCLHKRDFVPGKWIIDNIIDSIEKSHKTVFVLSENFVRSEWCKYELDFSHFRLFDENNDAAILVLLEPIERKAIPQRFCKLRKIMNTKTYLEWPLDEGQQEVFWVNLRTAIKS
Protocol: C57BL/6J mice were obtained from The Jackson Laboratory (Bar Harbor, Me.). Primary peritoneal macrophages were obtained by peritoneal lavage 4 days after intraperitoneal injection (3 ml) of sterile 3% thioglycolate broth. Washed cells were resuspended in RPMI 1640 which contained 2% FBS, 1% penicillin:streptomycin and 2 mM L-glutamine. After plating, cells were incubated overnight at 37° C. and then washed with PBS to remove non-adherent cells. Cells were exposed to peptides 30 min before stimulation with a TLR agonist.
Protein-free Escherichia coli K235 LPS was used at final concentration of 10 ng/ml to stimulate cells. S-[2,3-bis(palmitoyloxy)-(2-RS)-propyl]-N-palmitoyl-(R)-Cys-Ser-Lys4-OH (P3C) and S-[2,3-bis(palmitoyloxy)-(2-RS)-propyl]-[R]-Cys-Ser-Lys4-OH (P2C) were purchased from EMC microcollections GmbH (Tubingen, Germany) and used for cell stimulation at 500 and 50 ng/ml, respectively. Phospho-ERK1/2 and phospho-JNK1/2 rabbit Abs were obtained from Cell Signaling Technology, Inc. β-actin rabbit Ab were from SantaCruz Biotechnology, Inc.
Because of the role TRAP plays in TLR2 signaling, TIRAP TIR-derived decoy peptide effects on TLR2-induced cytokine mRNA expression were examined. Thioglycollate-elicited mouse macrophages were stimulated either by P2C, an agonist that induces signaling through TLR2/TLR6 heterodimerization, or P3C, a TLR2/TLR1 agonist, and effects of TIRAP TR-derived decoy peptides on induction of cytokine mRNA were examined. […] To confirm the inhibitory effect of TR3 and TR6 on P3C-induced signaling, IL-6 and TNF-α concentration was measured in macrophage supernatants collected 5 h after stimulation of cells with P3C. […] Concordantly, both TR3 and TR6 diminished the P3C-induced ERK phosphorylation (FIG. 3D).
C57BL/6J mice were obtained from The Jackson Laboratory (BarHarbor, Me.). Harvesting, culturing, and stimulation of peritoneal macrophages were described in previous publications (1, 18, 19). Escherichia coli K235 LPS (34) was used at the final concentration of 100 ng/ml. The 2,3-bis(palmitoyloxy)-(2-RS)-propyl-N-palmitoyl-(R)-Cys-Ser-Lys4-OH (P3C) and S[2,3-bis(palmitoyloxy)-(2-RS)-propyl]-[R]-Cys-Ser-Lys4-OH (P2C) (EMC Microcollections, Tubingen, Germany) were used at 500 and 50 ng/ml, respectively. Oligonucleotide (ODN) 1668 and low m.w. polyinosinic-polycytidylic acid [poly(I:C)] in complex with LyoVec were obtained from InvivoGen; these agonists were used at 2.5 μM and 400 ng/ml, respectively.

MAPK (ERK, JNK, p38) = test: MAPK activation by peptide alone, macrophages without TLR agonist; assay type: cell-based, mouse; conditions: 20 μM peptide, 1 hour incubation
Protocol: Neither TIRAP peptide activated ERK in cells incubated without a TLR agonist (not shown). […] The mechanism of this differential MAPK activation by select peptides, although interesting, is not understood at this time. Peptides TR9 and TR11 inhibited both ERK and JNK MAPKs (FIG. 1D). Peptide-induced inhibition of ERK persisted over a long period of time.
We next examined whether TRAM peptides inhibit the TLR4-mediated p38, ERK, and JNK MAPK activation. Murine macrophages pretreated with peptides for 30 min were challenged with LPS. Cell lysates were collected 30 min post-stimulation and analyzed for MAPK phosphorylation by Western analysis. Consistent with peptide effects on steady-state mRNA, both TM4 and TM6 inhibited activation of all three MAPKs (FIG. 5C). The inhibition of MAPKs by TM4 or TM6 was long lasting; it persisted for at least 1 h after LPS stimulation (data not shown). To characterize further the effects of TRAM peptides on MAPKs, murine macrophages were treated with TRAM peptides, but not challenged by LPS.

TLR4/MyD88 = test: LPS-induced TLR4/MyD88 coimmunoprecipitation in mouse peritoneal macrophages; assay type: cell-based; conditions: 20 μM peptide 30 min before LPS 100 ng/ml
Protocol: FIG. 9. TM4, TM6, and TR6 block adapter recruitment to TLR4. (A) A total of 6×10^5 HEK293T cells was transfected with 1 μg pcDNA3.1-mTLR4-Cer and pEF-BOS-mTRAM-HA. Twenty-four hours posttransfection, the cells were treated with 20 μM of each peptide for 1 h. Cell lysates were immunoprecipitated with anti-GFP Ab and blotted with anti-HA-HRP. (B) A total of 2×10^6 mouse peritoneal macrophages was pretreated with 20 μM of each peptide for 30 min prior to stimulation with 100 ng/ml LPS. Cell extracts were obtained 30 min after LPS treatment, immunoprecipitated with goat anti-TLR4 Ab, and blotted with rabbit anti-MyD88 or anti-TLR4 Ab. Data are representative of three independent experiments.
HEK293T cells were transfected with indicated plasmids using Superfect Transfection Reagent (Qiagen). […] Protein was quantified using Bio-Rad protein quantification kit. Equal amount of protein was loaded and analyzed by 10% SDS-PAGE and immunoblotting. The cell extracts containing equal amount of protein were incubated with 1 μg Ab for 2 h, followed by 4-h incubation with 25 μl protein G agarose beads (Roche); the beads were then washed four times with lysis buffer, boiled in […] sample loading buffer, and analyzed by immunoblotting. […]

Compound	Inhibition of TLR2 signaling (overall) (TLR2)	JNK activation in macrophages without TLR agonist (MAPK (ERK, JNK, p38))	LPS-induced TLR4/MyD88 association (TLR4/MyD88)
CC[C@H](C)[C@H](NC(=O)[C@H](CCCCN)NC(=O)[C@@H](NC(=O)[C@H](CCC(N)=O)NC(=O)[C@@H](N)CCCNC(=N)N)[C@@H](C)CC)C(=O)N[C@@H](Cc1c[nH]c2ccccc12)C(=O)N[C@@H](Cc1ccccc1)C(=O)N[C@@H](CCC(N)=O)C(=O)N[C@@H](CC(N)=O)C(=O)N[C@@H](CCCNC(=N)N)C(=O)N[C@@H](CCCNC(=N)N)C(=O)N[C@@H](CCSC)C(=O)N[C@@H](CCCCN)C(=O)N[C@@H](Cc1c[nH]c2ccccc12)C(=O)N[C@@H](CCCCN)C(=O)N[C@@H](CCCCN)C(=O)N[C@@H](CCC(=O)O)C(=O)N[C@@H](CC(C)C)C(=O)N[C@@H](CS)C(=O)N[C@@H](CCC(N)=O)C(=O)N[C@@H](C)C(=O)N[C@@H](CC(C)C)C(=O)N[C@@H](CO)C(=O)N[C@@H](CCCNC(=N)N)C(=O)N[C@@H](CO)C(=O)N[C@@H](Cc1c[nH]cn1)C(=O)N[C@@H](CS)C(=O)N[C@@H](CCCNC(=N)N)C(=O)O [TR5] (H-RQIKIWFQNRRMKWKKELCQALSRSHCR-OH)	does not		
RQIKIWFQNRRMKWKKEGSQASLRCF [TR3]	inhibits	moderately activated	
RQIKIWFQNRRMKWKKPGFLRDPWCKYQML [TR6]		moderately activated	efficiently prevented
